Patent publication US11466006B2, “Dual selective PI3 delta and gamma kinase inhibitors” (Rhizen Pharmaceuticals SA, priority 2013, dated 2022)

Tests used:
PI3Kδ = PI3Kδ (Homo sapiens, UniProt O00329); experiment: Fluorescent (HTRF) determination of PI3 kinase enzyme activity, delta isoform; type: biochemical; set-up: purchased Millipore (assay kit); conditions: Table 1, unit printed in cell; read-out: IC50 Pi3Kδ
Description: (§1) Phosphoinositide 3 kinases (PI3K) belong to a class of lipid kinases that play a critical role in the regulation of several key cellular processes. The PI3K are capable of phosphorylating the 3-hydroxy position of phosphoinositols thereby generating second messengers involved in downstream signalling events. The homogenous time resolved fluorescence (HTRF) assay allows detection of 3,4,5-triphosphate (PIP3) formed as a result of phosphorylation of phosphotidylinositol 4,5-biphosphate (PIP2) by PI3K isoforms such as α, β, γ or δ.
(§2) PI3K isoform activity for α, β, γ or δ was determined using a PI3K human HTRF™ Assay Kit (Millipore, Billerica, Mass.) with modifications. All incubations were carried out at room temperature. Briefly, 0.5 μl of 40× inhibitor (in 100% DMSO) or 100% DMSO were added to each well of a 384-well white plate (Greiner Bio-One, Monroe, N.C.) containing 14.5 μl 1× reaction buffer /PIP2 (10 mM MgCl2, 5 mM DTT, 1.38 μM PIP2) mix with or without enzyme, followed by 5 μl/well of 400 μM ATP and incubated for an additional 30 minutes. Reaction was terminated by adding 5 μl/well stop solution (Millipore, Billerica, Mass.). […] HRTF ratio was measured on a microplate reader (BMG Labtech., Germany) at an excitation wavelength of 337 nm and emission wavelengths of 665 and 615 nm with an integration time of 400 msec counting delay of 50 msec.

Pi3K γ = Pi3K γ (Homo sapiens, UniProt P48736); experiment: Fluorescent (HTRF) determination of PI3 kinase enzyme activity, gamma isoform; type: biochemical; set-up: purchased Millipore (assay kit); conditions: Table 1, unit printed in cell; read-out: IC50 Pi3K γ
Pi3K γ, sequence (P48736 whole entry, canonical isoform): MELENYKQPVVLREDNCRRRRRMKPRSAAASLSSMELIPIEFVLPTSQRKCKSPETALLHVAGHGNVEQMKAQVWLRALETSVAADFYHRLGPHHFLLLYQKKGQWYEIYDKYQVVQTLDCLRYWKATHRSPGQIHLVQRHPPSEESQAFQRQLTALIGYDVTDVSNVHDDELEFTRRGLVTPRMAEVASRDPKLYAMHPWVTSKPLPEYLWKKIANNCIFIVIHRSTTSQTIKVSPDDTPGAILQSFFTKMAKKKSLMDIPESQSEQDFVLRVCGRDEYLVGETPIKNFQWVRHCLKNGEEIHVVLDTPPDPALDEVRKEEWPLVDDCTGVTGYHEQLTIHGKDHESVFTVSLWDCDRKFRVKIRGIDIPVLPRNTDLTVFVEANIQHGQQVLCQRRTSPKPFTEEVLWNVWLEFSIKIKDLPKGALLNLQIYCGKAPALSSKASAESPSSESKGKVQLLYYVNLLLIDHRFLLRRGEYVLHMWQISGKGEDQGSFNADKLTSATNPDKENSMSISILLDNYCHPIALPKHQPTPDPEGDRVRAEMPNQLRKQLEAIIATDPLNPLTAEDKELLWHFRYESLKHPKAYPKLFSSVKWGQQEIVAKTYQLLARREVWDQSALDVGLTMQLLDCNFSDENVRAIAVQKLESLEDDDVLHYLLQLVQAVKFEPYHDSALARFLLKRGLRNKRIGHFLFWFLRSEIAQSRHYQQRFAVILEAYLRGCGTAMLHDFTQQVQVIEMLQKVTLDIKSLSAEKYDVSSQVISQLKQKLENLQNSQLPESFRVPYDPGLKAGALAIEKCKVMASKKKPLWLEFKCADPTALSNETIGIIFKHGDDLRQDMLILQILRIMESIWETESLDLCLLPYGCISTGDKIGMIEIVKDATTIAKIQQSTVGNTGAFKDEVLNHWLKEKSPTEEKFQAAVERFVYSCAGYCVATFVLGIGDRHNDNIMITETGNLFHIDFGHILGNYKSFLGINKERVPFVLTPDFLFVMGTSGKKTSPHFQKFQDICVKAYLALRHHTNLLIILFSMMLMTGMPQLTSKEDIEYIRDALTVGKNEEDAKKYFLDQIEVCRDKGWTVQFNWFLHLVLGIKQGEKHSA
Description: as §1, §2

[1] = reported at 55th ASH Annual Meeting 2013; cited from earlier work

PI3Kδ, sequence (O00329 whole entry, canonical isoform): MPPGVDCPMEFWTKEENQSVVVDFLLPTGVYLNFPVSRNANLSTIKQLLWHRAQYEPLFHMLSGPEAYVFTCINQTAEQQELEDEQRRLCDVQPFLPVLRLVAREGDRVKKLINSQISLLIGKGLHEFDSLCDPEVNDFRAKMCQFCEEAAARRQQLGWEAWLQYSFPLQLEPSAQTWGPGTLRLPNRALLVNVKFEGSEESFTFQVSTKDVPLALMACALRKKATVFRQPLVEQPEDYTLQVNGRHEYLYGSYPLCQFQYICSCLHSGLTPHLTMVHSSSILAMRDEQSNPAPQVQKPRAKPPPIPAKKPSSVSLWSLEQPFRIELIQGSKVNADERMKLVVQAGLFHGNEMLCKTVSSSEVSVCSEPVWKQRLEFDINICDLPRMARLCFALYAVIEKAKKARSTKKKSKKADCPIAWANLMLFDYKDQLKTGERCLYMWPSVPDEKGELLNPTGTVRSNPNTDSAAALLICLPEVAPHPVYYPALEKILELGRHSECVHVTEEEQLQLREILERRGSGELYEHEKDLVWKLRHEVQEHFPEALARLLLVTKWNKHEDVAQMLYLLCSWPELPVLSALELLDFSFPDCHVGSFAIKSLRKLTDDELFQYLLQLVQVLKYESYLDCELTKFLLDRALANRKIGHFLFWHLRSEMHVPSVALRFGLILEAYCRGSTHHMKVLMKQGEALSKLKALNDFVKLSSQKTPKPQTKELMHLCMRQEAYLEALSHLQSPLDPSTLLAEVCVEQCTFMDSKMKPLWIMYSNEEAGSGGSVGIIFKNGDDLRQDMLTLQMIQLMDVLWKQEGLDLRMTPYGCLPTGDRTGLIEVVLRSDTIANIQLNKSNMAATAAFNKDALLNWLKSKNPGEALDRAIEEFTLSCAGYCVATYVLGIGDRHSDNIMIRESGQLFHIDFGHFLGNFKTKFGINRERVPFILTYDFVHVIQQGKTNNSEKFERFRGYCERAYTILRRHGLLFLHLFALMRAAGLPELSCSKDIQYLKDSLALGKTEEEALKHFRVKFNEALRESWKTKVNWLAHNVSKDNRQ
PI3Kδ, sequence (P27986 whole entry partner, canonical isoform): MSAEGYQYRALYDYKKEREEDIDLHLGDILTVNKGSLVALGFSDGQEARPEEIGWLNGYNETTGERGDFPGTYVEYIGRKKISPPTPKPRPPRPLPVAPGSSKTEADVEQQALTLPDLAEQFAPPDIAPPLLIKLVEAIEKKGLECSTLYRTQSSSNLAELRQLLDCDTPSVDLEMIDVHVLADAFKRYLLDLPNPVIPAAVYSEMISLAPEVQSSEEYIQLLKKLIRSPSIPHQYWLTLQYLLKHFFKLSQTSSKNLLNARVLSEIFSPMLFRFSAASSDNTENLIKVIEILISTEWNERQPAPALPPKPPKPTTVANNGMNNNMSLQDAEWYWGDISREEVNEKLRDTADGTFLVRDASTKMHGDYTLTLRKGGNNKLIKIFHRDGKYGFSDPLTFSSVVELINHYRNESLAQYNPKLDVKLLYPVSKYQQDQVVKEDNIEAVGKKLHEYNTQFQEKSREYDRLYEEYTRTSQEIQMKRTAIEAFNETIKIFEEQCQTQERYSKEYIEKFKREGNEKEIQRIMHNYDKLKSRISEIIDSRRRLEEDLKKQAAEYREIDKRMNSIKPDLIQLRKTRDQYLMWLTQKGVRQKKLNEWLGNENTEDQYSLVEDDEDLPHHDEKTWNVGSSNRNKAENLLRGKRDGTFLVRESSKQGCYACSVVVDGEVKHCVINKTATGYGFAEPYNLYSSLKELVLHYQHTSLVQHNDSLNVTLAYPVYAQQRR

IC50 (PI3Kδ) [µM] | IC50 (Pi3K γ) [µM] | Structure (SMILES) | maximum tolerated dose (MTD) [1] [mg BID]
> 10 | > 10 | CC[C@@H](Nc1ncnc2[nH]cnc12)c1oc2ccccc2c(=O)c1-c1cccc(F)c1 [Compound A2, (R)-2-(1-(9H-purin-6-ylamino)propyl)-3-(3-fluorophenyl)-4H-chromen-4-one] | 
 |  | C[C@H](Nc1ncnc2[nH]cnc12)c1cc2cccc(Cl)c2c(=O)n1-c1ccccc1 [IPI-45] | 75
